Data taken from PMC2408923, “N-methylisatin-beta-thiosemicarbazone derivative (SCH 16) is an inhibitor of Japanese encephalitis virus infection in vitro and in vivo” (Virology Journal, 2008).
In brackets after ≈: the same amount, converted by molar mass. Read-outs that look alike come from different tables or passages of the source.

Legend:
JEV (P20778) [1] = assay: Plaque reduction assay, JEV in PS cells; settings: for IC50: Japanese encephalitis virus
in vitro [2] = settings: pig
WNV (G22886) = assay: Plaque reduction assay, WNV in PS cells; settings: for IC50: West Nile virus
Den-2 virus (P23085) = assay: Plaque reduction assay, Den-2 in BHK 21 cells; format: cell-based, Dengue-2 virus; settings: non-cytotoxic concentrations
in vitro [3] = settings: hamster
JEV translation = assay: In vitro translation of RNA from SCH 16 treated JEV infected PS cells
JEV, WNV and Den-2 = assay: Cytopathic effect (CPE) inhibition assay; format: cell-based; settings: screen against JEV, doubling dilutions beginning with CC50
JEV = assay: In vivo evaluation by intracerebral JEV challenge; parameters: species or system Swiss albino mice
JEV (P20778) [4] = assay: In vivo evaluation by peripheral (intraperitoneal) JEV challenge; parameters: species or system Swiss albino mice; settings: for Protection: mice, 50LD50 JEV intraperitoneal
[5] = tested on: JEV replication in PS cells; assay: Minimum contact time: SCH 16 removed at time points from JEV infected PS cells; format: cell-based, Japanese Encephalitis Virus
[6] = tested on: JEV replication in PS cells; assay: Kinetics of antiviral activity: staggered addition of SCH 16 to JEV infected PS cells; format: cell-based, Japanese Encephalitis Virus; settings: for Inhibition of JEV replication (viral RNA, viral antigen, virus yield): read at 48 hours; for JEV antigen by immunofluorescence: Figure 3 Panel B
[7] = read-out: IC50, plaque reduction, JEV (molar)
[8] = read-out: IC50, plaque reduction, WNV (molar)

Compound: NC(=O)c1ncn([C@@H]2O[C@H](CO)[C@@H](O)[C@H]2O)n1 [Ribavirin, reference compound]
- IC50 (JEV (P20778) [1]; 72 h, read-out: IC50, plaque reduction, JEV): 3.9 µg/mL
- IC50 (JEV (P20778) [1]; [7]): 16 µM
- CC50 (in vitro [2]): 50 µg/mL (≈ 205 µM)
- IC50 (WNV (G22886); read-out: IC50, plaque reduction, WNV): 1.7 µg/mL
- IC50 (WNV (G22886); [8]): 7 µM
- Antiviral activity against Den-2 plaque formation (Den-2 virus (P23085)): dose dependent inhibition
- CC50 (in vitro [3]): 200 µg/mL (≈ 819 µM)

Compound: COc1cc(-c2cnc(/N=C3\C(=O)N(CN4CCN(c5ccc([N+](=O)[O-])cc5)CC4)c4ccccc43)nc2N)cc(OC)c1OC [SCH 16]
- In vitro translation of viral RNA into JEV proteins (JEV translation; RNA from JEV infected cells treated with SCH 16 for 4 hours): failed to translate into JEV proteins
- In vitro translation of viral RNA into JEV proteins (JEV translation; RNA from infected cells treated with SCH 16 at 10 hours): showed the presence of JEV proteins
- IC50 (JEV (P20778) [1]; read-out: IC50, concentration inhibiting 50% of the plaques produced by JEV): 16 µg/mL
- IC50 (JEV (P20778) [1]; [7]): 25 µM
- Therapeutic Index (TI), CC50/IC50, JEV (JEV (P20778) [1]; ratio of CC50 to IC50): 5
- CC50 (in vitro [2]): 76 µg/mL (≈ 122 µM)
- IC50 (WNV (G22886); read-out: IC50, concentration inhibiting 50% of the plaques produced by WNV): 4 µg/mL
- IC50 (WNV (G22886); [8]): 6 µM
- Therapeutic Index (TI), CC50/IC50, WNV (WNV (G22886); ratio of CC50 to IC50): 19
- Inhibition of CPE (JEV, WNV and Den-2): showed inhibition of CPE
- Day of death (JEV; mouse, in vivo): 9 days
- Prolonged survival time between treated and untreated mice (JEV; mouse, in vivo): 3 days
- Protection (JEV; mouse, in vivo): no protection
- Day post-infection when symptoms started appearing (JEV; treated mice, intracerebral challenge, untreated sick by day 3): 7 days
- Protection (JEV (P20778) [4]; 200 mg/kg body weight oral twice daily): 25%
- Protection (JEV (P20778) [4]; 400 mg/kg body weight oral twice daily): 50%
- Protection (JEV (P20778) [4]; 500 mg/kg body weight oral twice daily): complete protection
- Prevention of mortality (JEV (P20778) [4]; mouse, in vivo): 100%
- Viral RNA in brain homogenate by RT-PCR (JEV (P20778) [4]; mouse, in vivo): viral RNA was present
- Viral antigen in brain smears by immunofluorescent staining (JEV (P20778) [4]; mouse, in vivo): no viral antigen could be demonstrated
- Virus isolation from brain tissue of surviving mice (JEV (P20778) [4]; mouse, in vivo): could not be isolated
- Antiviral activity against Den-2 plaque formation (Den-2 virus (P23085)): No antiviral activity
- Minimum contact period required to completely inhibit virus replication ([5]; JEV infected PS cells): 8 h
- Inhibition of virus replication (viral antigen, viral RNA, infectious virus yield) ([5]; SCH 16 in contact with infected cultures for more than 8 hours post-infection): complete inhibition of virus replication
- Inhibition of virus replication (viral antigen, viral RNA, infectious virus yield) ([5]; SCH16 withdrawn at earlier time points): no inhibition of virus replication
- Inhibition of JEV replication (viral RNA, viral antigen, virus yield) ([6]; 76 μg/ml added at 2, 4, 6 and 8 hours post-infection): completely inhibit
- JEV antigen by immunofluorescence ([6]; SCH 16 added at 0, 2, 4, 6 and 8 hrs post infection): undetectable
- JEV antigen by immunofluorescence ([6]; SCH 16 added at 10, 12 and 14 hours post infection): positive for viral antigen
- Inhibition of JEV replication (viral RNA, viral antigen, virus yield) ([6]; added beyond 8 hours post infection): did not completely inhibit
- CC50 (in vitro [3]): 126 µg/mL (≈ 202 µM)
